Assay results published in publication PMC6409085, “Three odorant-binding proteins are involved in the behavioral response of Sogatella furcifera to rice plant volatiles” (PeerJ, 2019).
Several values for one entry are separate records, joined by “and”; a condition that tells them apart may be missing. Equal entries are not always repeated.

Columns and labels:
SfurOBP1 = SfurOBP1 (Sogatella furcifera, UniProt V5T8N5); assay: biochemical; format: binding; conditions: for Fluorescence competitive binding assay, fluorescence intensity: OBP1, three replicate columns
In short: (§1)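 In 50 mM Tris-HCl pH 7.4, odorants displace 1-NPN (2.0 µM) from 2.0 µM protein. Emission at 390–490 nm under 337 nm excitation is measured 2 min after competitor addition, in triplicate. Ki is obtained from IC50 and the 1-NPN dissociation constant.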

SfurOBP11 = SfurOBP11 (Sogatella furcifera, UniProt V5T6E3); assay: biochemical; format: binding
In short: as §1

SfurOBP2 = SfurOBP2 (Sogatella furcifera, UniProt V5T759); assay: biochemical; format: binding
In short: as §1

SfurOBP3 = SfurOBP3 (Sogatella furcifera, UniProt V5T818); assay: biochemical; format: binding; conditions: for Fluorescence competitive binding assay, fluorescence intensity: OBP3, three replicate columns
In short: as §1

S. furcifera adults = assay: Y-tube olfactometer behavioral trials; format: in vivo, Sogatella furcifera; conditions: odorant 50 µL/L vs hexane
In short: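 Single S. furcifera adults (2 days post-emergence, starved 0.5 h) chose between odorant (100 µL of 50 µL/L on filter paper) and hexane control in a glass Y-tube, charcoal-filtered humidified air 300 mL/min per arm, 25 ± 1 °C, 50% RH. Choice scored if insect passed half an arm and stayed >1 min within 10 min; 45 insects per compound, chi-squared test.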

Sequence of SfurOBP1 (V5T8N5 entry or part of it): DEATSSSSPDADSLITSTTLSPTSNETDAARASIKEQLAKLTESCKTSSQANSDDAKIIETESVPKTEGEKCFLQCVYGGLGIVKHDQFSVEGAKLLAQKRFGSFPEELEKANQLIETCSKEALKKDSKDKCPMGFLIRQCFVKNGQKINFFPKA
Sequence of SfurOBP11 (V5T6E3 entry or part of it): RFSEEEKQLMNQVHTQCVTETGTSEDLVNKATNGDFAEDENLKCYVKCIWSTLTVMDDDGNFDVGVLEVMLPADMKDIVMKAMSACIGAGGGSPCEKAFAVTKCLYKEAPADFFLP
Sequence of SfurOBP2 (V5T759 entry or part of it): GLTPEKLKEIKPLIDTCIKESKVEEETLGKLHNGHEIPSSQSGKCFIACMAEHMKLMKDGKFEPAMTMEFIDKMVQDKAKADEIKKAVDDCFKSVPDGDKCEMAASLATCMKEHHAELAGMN
Sequence of SfurOBP3 (V5T818 entry or part of it): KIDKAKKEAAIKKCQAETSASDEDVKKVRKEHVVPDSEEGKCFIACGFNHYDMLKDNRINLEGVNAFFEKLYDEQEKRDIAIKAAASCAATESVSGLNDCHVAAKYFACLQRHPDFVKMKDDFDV

Fluorescence competitive binding assay, fluorescence intensity (SfurOBP1; ligand concentration 2 (μM)): 7113 and 7279 and 7196 | Fluorescence competitive binding assay, fluorescence intensity (SfurOBP1; ligand concentration 4 (μM)): 8035 and 6567 and 6323 | Fluorescence competitive binding assay, fluorescence intensity (SfurOBP1; ligand concentration 6 (μM)): 7198 and 8786 and 7995 | Fluorescence competitive binding assay, fluorescence intensity (SfurOBP1; ligand concentration 8 (μM)): 8545 and 7731 and 8071 | Fluorescence competitive binding assay, fluorescence intensity (SfurOBP1; ligand concentration 10 (μM)): 6799 and 7181 and 8487 | Fluorescence competitive binding assay, fluorescence intensity (SfurOBP1; ligand concentration 12 (μM)): 7177 and 8788 and 7408 | Fluorescence competitive binding assay, fluorescence intensity (SfurOBP1; ligand concentration 14 (μM)): 8520 and 7543 and 7998 | Fluorescence competitive binding assay, fluorescence intensity (SfurOBP1; ligand concentration 16 (μM)): 7196 and 9418 and 8283 | Fluorescence competitive binding assay, fluorescence intensity (SfurOBP1; ligand concentration 18 (μM)): 10247 and 9192 and 8904 | Fluorescence competitive binding assay, fluorescence intensity (SfurOBP1; ligand concentration 20 (μM)): 10042 and 9521 and 8702 | IC50 (SfurOBP1; SfurOBP1, protein and 1-NPN both 2.0 µM, competitor 2-20 µM, read-out: IC50): > 20 µM | IC50 (SfurOBP11; SfurOBP11, protein and 1-NPN both 2.0 µM, competitor 2-20 µM, read-out: IC50): > 20 µM | Fluorescence intensity, fluorescence competitive binding assay, OBP11 (SfurOBP11; ligand concentration 2, replicate 1): 24279 | Fluorescence intensity, fluorescence competitive binding assay, OBP11 (SfurOBP11; ligand concentration 2, replicate 2): 24939 | Fluorescence intensity, fluorescence competitive binding assay, OBP11 (SfurOBP11; ligand concentration 2, replicate 3): 29122 | Fluorescence intensity, fluorescence competitive binding assay, OBP11 (SfurOBP11; ligand concentration 4, replicate 1): 25640 | Fluorescence intensity, fluorescence competitive binding assay, OBP11 (SfurOBP11; ligand concentration 4, replicate 2): 28958 | Fluorescence intensity, fluorescence competitive binding assay, OBP11 (SfurOBP11; ligand concentration 4, replicate 3): 26788 | Fluorescence intensity, fluorescence competitive binding assay, OBP11 (SfurOBP11; ligand concentration 6, replicate 1): 25301 | Fluorescence intensity, fluorescence competitive binding assay, OBP11 (SfurOBP11; ligand concentration 6, replicate 2): 29174 | Fluorescence intensity, fluorescence competitive binding assay, OBP11 (SfurOBP11; ligand concentration 6, replicate 3): 26969 | Fluorescence intensity, fluorescence competitive binding assay, OBP11 (SfurOBP11; ligand concentration 8, replicate 1): 29061 | Fluorescence intensity, fluorescence competitive binding assay, OBP11 (SfurOBP11; ligand concentration 8, replicate 2): 28222 | Fluorescence intensity, fluorescence competitive binding assay, OBP11 (SfurOBP11; ligand concentration 8, replicate 3): 29900 | Fluorescence intensity, fluorescence competitive binding assay, OBP11 (SfurOBP11; ligand concentration 10, replicate 1): 27603 | Fluorescence intensity, fluorescence competitive binding assay, OBP11 (SfurOBP11; ligand concentration 10, replicate 2): 27689 | Fluorescence intensity, fluorescence competitive binding assay, OBP11 (SfurOBP11; ligand concentration 10, replicate 3): 19569 | Fluorescence intensity, fluorescence competitive binding assay, OBP11 (SfurOBP11; ligand concentration 12, replicate 1): 25318 | Fluorescence intensity, fluorescence competitive binding assay, OBP11 (SfurOBP11; ligand concentration 12, replicate 2): 27390 | Fluorescence intensity, fluorescence competitive binding assay, OBP11 (SfurOBP11; ligand concentration 12, replicate 3): 28182 | Fluorescence intensity, fluorescence competitive binding assay, OBP11 (SfurOBP11; ligand concentration 14, replicate 1): 26354 | Fluorescence intensity, fluorescence competitive binding assay, OBP11 (SfurOBP11; ligand concentration 14, replicate 2): 26978 | Fluorescence intensity, fluorescence competitive binding assay, OBP11 (SfurOBP11; ligand concentration 14, replicate 3): 26309 | Fluorescence intensity, fluorescence competitive binding assay, OBP11 (SfurOBP11; ligand concentration 16, replicate 1): 23481 | Fluorescence intensity, fluorescence competitive binding assay, OBP11 (SfurOBP11; ligand concentration 16, replicate 2): 24311 | Fluorescence intensity, fluorescence competitive binding assay, OBP11 (SfurOBP11; ligand concentration 16, replicate 3): 22273 | Fluorescence intensity, fluorescence competitive binding assay, OBP11 (SfurOBP11; ligand concentration 18, replicate 1): 28836 | Fluorescence intensity, fluorescence competitive binding assay, OBP11 (SfurOBP11; ligand concentration 18, replicate 2): 32227 | Fluorescence intensity, fluorescence competitive binding assay, OBP11 (SfurOBP11; ligand concentration 18, replicate 3): 28560 | Fluorescence intensity, fluorescence competitive binding assay, OBP11 (SfurOBP11; ligand concentration 20, replicate 1): 27143 | Fluorescence intensity, fluorescence competitive binding assay, OBP11 (SfurOBP11; ligand concentration 20, replicate 2): 27661 | Fluorescence intensity, fluorescence competitive binding assay, OBP11 (SfurOBP11; ligand concentration 20, replicate 3): 26182 | IC50 (SfurOBP2; SfurOBP2, protein and 1-NPN both 2.0 µM, competitor 2-20 µM, read-out: IC50): > 20 µM | Fluorescence competitive binding assay, OBP2 (raw fluorescence reading) (SfurOBP2; ligand concentration 2 (unit not given), replicate column 1 of 3): 19179 | Fluorescence competitive binding assay, OBP2 (raw fluorescence reading) (SfurOBP2; ligand concentration 2 (unit not given), replicate column 2 of 3): 16653 | Fluorescence competitive binding assay, OBP2 (raw fluorescence reading) (SfurOBP2; ligand concentration 2 (unit not given), replicate column 3 of 3): 19027 | Fluorescence competitive binding assay, OBP2 (raw fluorescence reading) (SfurOBP2; ligand concentration 4 (unit not given), replicate column 1 of 3): 18170 | Fluorescence competitive binding assay, OBP2 (raw fluorescence reading) (SfurOBP2; ligand concentration 4 (unit not given), replicate column 2 of 3): 19771 | Fluorescence competitive binding assay, OBP2 (raw fluorescence reading) (SfurOBP2; ligand concentration 4 (unit not given), replicate column 3 of 3): 20766 | Fluorescence competitive binding assay, OBP2 (raw fluorescence reading) (SfurOBP2; ligand concentration 6 (unit not given), replicate column 1 of 3): 19862 | Fluorescence competitive binding assay, OBP2 (raw fluorescence reading) (SfurOBP2; ligand concentration 6 (unit not given), replicate column 2 of 3): 19512 | Fluorescence competitive binding assay, OBP2 (raw fluorescence reading) (SfurOBP2; ligand concentration 6 (unit not given), replicate column 3 of 3): 20651 | Fluorescence competitive binding assay, OBP2 (raw fluorescence reading) (SfurOBP2; ligand concentration 8 (unit not given), replicate column 1 of 3): 15792 | Fluorescence competitive binding assay, OBP2 (raw fluorescence reading) (SfurOBP2; ligand concentration 8 (unit not given), replicate column 2 of 3): 18755 | Fluorescence competitive binding assay, OBP2 (raw fluorescence reading) (SfurOBP2; ligand concentration 8 (unit not given), replicate column 3 of 3): 20463 | Fluorescence competitive binding assay, OBP2 (raw fluorescence reading) (SfurOBP2; ligand concentration 10 (unit not given), replicate column 1 of 3): 17421 | Fluorescence competitive binding assay, OBP2 (raw fluorescence reading) (SfurOBP2; ligand concentration 10 (unit not given), replicate column 2 of 3): 18400 | Fluorescence competitive binding assay, OBP2 (raw fluorescence reading) (SfurOBP2; ligand concentration 10 (unit not given), replicate column 3 of 3): 18628 | Fluorescence competitive binding assay, OBP2 (raw fluorescence reading) (SfurOBP2; ligand concentration 12 (unit not given), replicate column 1 of 3): 16986 | Fluorescence competitive binding assay, OBP2 (raw fluorescence reading) (SfurOBP2; ligand concentration 12 (unit not given), replicate column 2 of 3): 26722 | Fluorescence competitive binding assay, OBP2 (raw fluorescence reading) (SfurOBP2; ligand concentration 12 (unit not given), replicate column 3 of 3): 18513 | Fluorescence competitive binding assay, OBP2 (raw fluorescence reading) (SfurOBP2; ligand concentration 14 (unit not given), replicate column 1 of 3): 17500 | Fluorescence competitive binding assay, OBP2 (raw fluorescence reading) (SfurOBP2; ligand concentration 14 (unit not given), replicate column 2 of 3): 18527 | Fluorescence competitive binding assay, OBP2 (raw fluorescence reading) (SfurOBP2; ligand concentration 14 (unit not given), replicate column 3 of 3): 15051 | Fluorescence competitive binding assay, OBP2 (raw fluorescence reading) (SfurOBP2; ligand concentration 16 (unit not given), replicate column 1 of 3): 15983 | Fluorescence competitive binding assay, OBP2 (raw fluorescence reading) (SfurOBP2; ligand concentration 16 (unit not given), replicate column 2 of 3): 17600 | Fluorescence competitive binding assay, OBP2 (raw fluorescence reading) (SfurOBP2; ligand concentration 16 (unit not given), replicate column 3 of 3): 16529 | Fluorescence competitive binding assay, OBP2 (raw fluorescence reading) (SfurOBP2; ligand concentration 18 (unit not given), replicate column 1 of 3): 18709 | Fluorescence competitive binding assay, OBP2 (raw fluorescence reading) (SfurOBP2; ligand concentration 18 (unit not given), replicate column 2 of 3): 20674 | Fluorescence competitive binding assay, OBP2 (raw fluorescence reading) (SfurOBP2; ligand concentration 18 (unit not given), replicate column 3 of 3): 18464 | Fluorescence competitive binding assay, OBP2 (raw fluorescence reading) (SfurOBP2; ligand concentration 20 (unit not given), replicate column 1 of 3): 19401 | Fluorescence competitive binding assay, OBP2 (raw fluorescence reading) (SfurOBP2; ligand concentration 20 (unit not given), replicate column 2 of 3): 17294 | Fluorescence competitive binding assay, OBP2 (raw fluorescence reading) (SfurOBP2; ligand concentration 20 (unit not given), replicate column 3 of 3): 16214 | Fluorescence competitive binding assay, fluorescence intensity (SfurOBP3; ligand concentration 2): 68575 and 67242 and 67984 | Fluorescence competitive binding assay, fluorescence intensity (SfurOBP3; ligand concentration 4): 64299 and 63882 and 65677 | Fluorescence competitive binding assay, fluorescence intensity (SfurOBP3; ligand concentration 6): 63214 and 64264 and 71883 | Fluorescence competitive binding assay, fluorescence intensity (SfurOBP3; ligand concentration 8): 56987 and 54777 and 62435 | Fluorescence competitive binding assay, fluorescence intensity (SfurOBP3; ligand concentration 10): 56513 and 56201 and 65155 | Fluorescence competitive binding assay, fluorescence intensity (SfurOBP3; ligand concentration 12): 55112 and 58995 and 53063 | Fluorescence competitive binding assay, fluorescence intensity (SfurOBP3; ligand concentration 14): 51702 and 52973 and 56636 | Fluorescence competitive binding assay, fluorescence intensity (SfurOBP3; ligand concentration 16): 47206 and 51931 and 50397 | Fluorescence competitive binding assay, fluorescence intensity (SfurOBP3; ligand concentration 18): 54350 and 59148 and 62323 | Fluorescence competitive binding assay, fluorescence intensity (SfurOBP3; ligand concentration 20): 48786 and 51913 and 45060 | IC50 (SfurOBP3; SfurOBP3, protein and 1-NPN both 2.0 µM, competitor 2-20 µM, read-out: IC50): > 20 µM
Compound: CCCCCCCC=O [octanal]
behavioral response of S. furcifera (in words) (S. furcifera adults): significantly repelled | number of insects choosing hexane arm (S. furcifera adults; adults): 15 | number of insects choosing volatilies arm (S. furcifera adults; adults): 8 | number of insects failed (no choice) (S. furcifera adults; adults): 17
